Test results reported in patent publication US20240287104A1, “NUCLIDE LABELLED H-TETRAZINES AND USE THEREOF FOR PET AND SPECT PRETARGETED IMAGING AND RADIONUCLIDE THERAPY” (RIGSHOSPITALET, priority 2020, published 2024).

Columns and labels:
[1] = Second-order rate constants by stopped-flow spectrophotometry, unsubstituted TCO in 1,4-dioxane at 25° C.; type: physicochemical; details: value of the Tz-scaffold: representative tetrazine with unsubstituted TCO, n ≥ 4
Description: Reaction kinetics of the Tz-derivatives were determined by pseudo-first order measurements in dioxane at 25.0±0.1° C. or PBS at 27.0±0.1° ° C. in a SX20 stopped flow photometer (Applied Photophysics). The pseudo first order rate constant was determined by linearization of the decay curve followed by linear fitting. The second order rate constant was calculated from the pseudo-first order rate constant.
A structurally diverse library of 45 Tz-derivatives was prepared (FIG. 15), covering a wide spectrum of physicochemical properties, in particular calculated TPSAs between 60-350 Å2 and different lipophilicities, with calculated log D7.4 values (c log D7.4) ranging from approximately −7.0 to 2.5 (Table 5). […] The distribution coefficient at physiological pH (log D7.4) and TPSA were calculated using the software Chemicalize. Tetrazines conjugated to DOTA were calculated with chelated trivalent cations, Tzs with other chelators with bivalent cations. Second-order rate constants for the Tz scaffolds A-L were determined by stopped-flow spectrophotometry (n≥4), monitoring the reaction of representative tetrazines with unsubstituted trans-cyclooctene (TCO) at 25° C. in 1,4-dioxane, and with TCO-PEG4 (modified TCO-5ax-OH, ‘minor-TCO’) in Dulbecco's phosphate buffered saline (DBPS) at 37° C. n≥3.

[2] = Second-order rate constants by stopped-flow spectrophotometry, TCO-PEG4 in DPBS at 37° C.; type: physicochemical; details: value of the Tz-scaffold: representative tetrazine with TCO-PEG4, n ≥ 4
Description: A structurally diverse library of 45 Tz-derivatives was prepared (FIG. 15), covering a wide spectrum of physicochemical properties, in particular calculated TPSAs between 60-350 Å2 and different lipophilicities, with calculated log D7.4 values (c log D7.4) ranging from approximately −7.0 to 2.5 (Table 5). The Tz-scaffolds (A-L) include mono- and disubstituted methyl-, phenyl-, 2-pyrimidyl-, and 2-pyridyl-substituted Tz-derivatives with second-order rate constants for the reaction with TCO ranging from 1.4 to 230 M^−1 s^−1 in 1,4-dioxane at 25° C., and from 1,100 to 73,000 M^−1 s^−1 in buffered aqueous solution at 37° C. […] Several compounds were obtained as copper(II) complexes (for details see the Supporting Information), which was taken into account in the calculation of c log D7.4 and TPSA. The distribution coefficient at physiological pH (log D7.4) and TPSA were calculated using the software Chemicalize. Tetrazines conjugated to DOTA were calculated with chelated trivalent cations, Tzs with other chelators with bivalent cations. Second-order rate constants for the Tz scaffolds A-L were determined by stopped-flow spectrophotometry (n≥4), monitoring the reaction of representative tetrazines with unsubstituted trans-cyclooctene (TCO) at 25° C. in 1,4-dioxane, and with TCO-PEG4 (modified TCO-5ax-OH, ‘minor-TCO’) in Dulbecco's phosphate buffered saline (DBPS) at 37° C. n≥3.

[3] = system: CC49-TCO pretargeted LS174T colon carcinoma xenografts; assay: Pretargeted blocking assay with [111In]Q (Example 140); type: in vivo, BALB/c mice; details: for Blocking effect: unlabeled Tz i.v. 72 h after CC49-TCO and 1 h before [111In]Q, change in tumor uptake 22 h p.i., normalized to unblocked group
Description: All animal studies were approved by the Danish Animal Welfare Council, ministry of Justice. Five weeks old female nude BALB/c mice (Charles River, Sulzfeld, Germany) were allowed to acclimatize for one week with access to water and chow ad libitum. Human colon cancer cell line (LS174T; obtained from ATCC) was cultured in minimum essential medium (MEM) supplemented with 10% fetal bovine serum, 1% L-Glutamine, 1% Sodium pyruvate, 1% non-essential amino acids, and 1% penicillin-streptomycin at 37° C. and 5% CO2. Cells were harvested by trypsination at a confluence of 70-90% and subcutaneous tumors were established in the left flank of the 6 weeks old animals by inoculation of ˜5×10^6 LS174T cells resuspended in sterile PBS (100 μL) and allowed to grow for 7-10 days. Tumors were measured using a caliper and the volume calculated using the formula volume=½(length×width^2).
The assay was inspired by receptor blocking experiments and based on the pretargeted imaging approach reported by Rossin et al. An ^111In-labeled Tz [^111In]Q was used in pair with TCO-modified CC49, a non-internalizing mAb that targets the tumor-associated glycoprotein 72 (TAG72), as a benchmark model for the in vivo ligation.
The TCO-modification of CC49 was carried out according to Rossin et al. To study the in vivo ligation performance of Tz-derivatives 1a-45a, BALB/c mice bearing LS174T colon carcinoma xenografts were injected intravenously (i.v.) with CC49-TCO 72 h prior to i.v. injection of the unlabeled Tz, followed by administration of [^111In]Q 1 h later. The animals were euthanized after 22 h and an ex vivo biodistribution was carried out to quantify the tumor uptake of [111 In]Q (FIG. 15). The efficiency of the in vivo ligation of the unlabeled Tz can thus be correlated to a reduced uptake of [111 In]Q (FIG. 15). As a control, blocking was performed using the non-radioactive precursor of [^111In]Q, which blocked ≥99% of the [^111In]Q tumor uptake. A group of CC49-TCO pretreated mice were injected exclusively with [^111In]Q (without blocking) and the determined uptake was used as reference value (100%) to normalize the observed changes in tumor uptake in blocking experiments.
All of these probes include H-phenyl-, pyrimidyl-phenyl-, or bis(pyridyl)-Tz-scaffolds with second-order rate constants for the reaction with TCO of >70 M 1 s 1 (1,4-dioxane, 25° C.) or of >39,000 M 1 s 1 (DPBS, 37° C.) (cf. Table 5). Next, potential correlations between the blocking effect, the c log D7.4 and the TPSA, as well as IEDDA reactivity were investigated. […] However, a distinct relationship between c log D7.4 values and the blocking effect was evidently observed when comparing Tz-derivatives with similar IEDDA reactivity (FIG. 16C, 16D). For all Tz-scaffolds a Pearson's correlation coefficient >0.78 was found. […] The blocking effect of non-radiolabeled Tz was determined as the change in tumor uptake of [111 In]Q 22 h p.i. Each Tz was administered 1 h prior to [111 In]Q and the uptake normalized to a group of animals were no blocking was performed (control). Data represent mean from n=3 mice/group. Correlation of blocking effect and c log D7.4 for Tz-derivatives with similar IEDDA reactivity (as shown in FIGS. 16C and D) where data was fitted to exponential growth equation Y=Y0 ekx (dotted line). The statistical analysis of the correlation between tumor uptake and c log D7.4 for the different groups of Tz-derivatives (shown in Table 7) was obtained by Pearson's correlation coefficient (r) which describes the goodness of fit between the blocking effect and c log D7.4. Notes: a Reaction of representative Tz with unsubstituted TCO; “Reaction of representative Tz with TCO-PEG4;” Measured for Tz-scaffold A only; n.d.=not determined.

[4] = system: CC49-TCO pretargeted LS174T tumor xenografts; assay: Blocking experiments with [111In]Q (Example 126, FIG. 3); type: in vivo, nude BALB/c mice; details: FIG. 3, cold 19F-Tz 2 h before [111In]Q
Description: In this respect, we designed two highly reactive Tzs, which allowed ^18F-labeling and respective introduction of polar groups (FIG. 4-8). UB137 and UB108 were synthesized in sufficient yields via a Pinner-like synthesis as described in Example 97 and 106 and their ability to be used in pretargeted imaging were evaluated. The results were compared with the performance of compounds UB-65 and RGV-52 (FIG. 3). Efficiency in vivo was tested in an ex vivo screening assay lately published by our group and is inspired by traditional receptor blocking studies. In short, tumour-bearing mice are injected with a validated TCO-modified pretargeting vector 72 h before a test ^19F-Tz is administered. Subsequently after 2 hours, a pretargeted established ^111In-DOTA-Tz (Q)[6] is administered to the same mouse. […] In this manner, the blocking ability of the cold ^19F-Tz can be evaluated. […]
All animal studies were approved by the Danish Animal Welfare Council, ministry of Justice. […] Tumors were measured using a caliper and the volume calculated using the formula volume=½(length×width^2).
These blocking experiments were made using the method described in Example 125. […] All tissues were weighted and the radioactivity measured in a gamma counter (Wizard2, Perkin Elmer) and data was corrected for decay, tissue weight and injected amount of radioactivity. […]

[5] = Stability in phosphate-buffered saline (PBS) by analytical HPLC; type: physicochemical; details: 12 h at 37° C.; for Stability in PBS (degradation): analytical HPLC
Description: The in vitro stability of UB108 and UB137 was assessed by analytical HPLC in Phosphate-buffered saline (PBS), Example 13 for UB108. […] Consequently, the organotin precursors were synthesized with an unoptimized synthetic strategy (FIG. 6, Examples 101 and 110). Radiolabeling succeeded in a one-pot, two step sequence with a RCY (d.c.) of approx. 10% and an overall synthesis time of ca. 90 minutes including synthesis, separation and formulation steps. An activity yield of 636 MBq starting from 11 GBq fluoride-18, and RCP of 98% at EOS was observed (FIGS. 6 and 11). UB137 could be labeled with similar results (FIGS. 6 and 7). The tetrazine ligation of ^18F-UB108 with s-TCO occurred rapidly, forming ligation products after click reaction (FIG. 11). Stability evaluation was completed for the formulated compound ^18F-UB108 in PBS at room temperature. […] UB137 could be labeled with similar results.
The shelf stability of UB-108 was assessed in phosphate-buffered saline (PBS) by analytical-HPLC. […] Consequently, the stannane precursor was synthesized in 4 steps (example 98-101 Radiolabeling succeeded in a one-pot, two-step sequence with a RCY (d.c.) of 11±3% (n=4) and an overall synthesis time of ca. 90 minutes including synthesis, separation and formulation. [^18F]-UB108 was obtained with an Am of 134±22 GBq/μmol (d.c.), a RCP of ≥99% (n=4) and an activity yield of 600-700 MBq (EOS) starting from ˜12 GBq fluoride-18. [^18F]-UB108 was stable in PBS at room temperature for minimum 4 h and rapidly reacted with TCO-PNP carbonate (23) as confirmed by radio-HPLC. Residual amounts of Cu and Sn in the final formulated solution were analyzed by ICP-MS and found to be well below the allowed limits specified in the ICH Guidelines (41-60 and 2.3-3.0 μg/L vs. 300 and 600 μg/day, respectively).

Row | Shelf stability in PBS, intact ([5]; 2 nmol/mL) [%] | Stability in PBS (degradation) [5] | Structure (SMILES) | Rate constant (1,4-dioxane, 25° C.) [1] [M⁻¹ s⁻¹] | Rate constant (DPBS, 37° C.) [2] | % Tumor Uptake of [^111In]46 after blocking ([3]; tumor uptake 22 h p.i. normalized to unblocked group (100%)) [%] | Blocking effect [3] [%] | Blocking effect ([3]; listed as non-radioactive precursor of [^111In]Q) [%] | Blocking effect (ranking) [4]
1 |  |  | O=C(O)CN1CCN(CC(=O)O)CCN(CC(=O)NCCOCCOCCOCCOCCOCCOCCOCCOCCOCCOCCOCCNC(=O)CCCC(=O)Nc2ccc(-c3nnc(-c4ccccn4)nn3)nc2)CCN(CC(=O)O)CC1 [Q, reference compound] | 230 | 73,000 M^−1 s^−1 | 1 | 99 | ≥ 99 | 
2 | 98 | did not show degradation | O=C(O)CN(CC(=O)O)Cc1cc(F)cc(-c2nncnn2)c1 [UB-108, 1-Carboxy-N-(carboxymethyl)-N-(3-fluoro-5-(1,2,4,5-tetrazin-3-yl)benzyl)methanaminium 2,2,2-trifluoroacetate] |  |  |  |  |  | best blocking effect
3 |  | did not show degradation | O=C(O)CNCc1cc(F)cc(-c2nncnn2)c1 [UB-137, 1-Carboxy-N-(3-fluoro-5-(1,2,4,5-tetrazin-3-yl)benzyl)methanaminium 2,2,2-trifluoroacetate] |  |  |  |  |  | best blocking effect
